Measurements taken from publication PMC7179202 (Molecules, 2020).

Assays:
[1] = set-up: method as in PMID 28256516; conditions: approved orally applied drug, SwissADME prediction; cited from earlier work
c-MET = c-MET (Homo sapiens, UniProt P08581); assay: Cell-free kinase inhibition assay (SelectScreen, Z'-LYTE), c-MET; conditions: for Prodrug factor c-MET = IC50 (prodrug)/IC50 (crizotinib): cell-free kinase assay
Text: (§1) The test compounds were screened in a final concentration of 1% DMSO using the Z′-LYTE® Assay.

[2] = Stability in R10 medium and fetal calf serum (HPLC-MS); conditions: R10 medium and pure FCS, 37 °C, after 72 h
Method: After precipitation of the macromolecules with acetonitrile, the supernatant was investigated via HPLC-MS measurements (Figure 4).
The 10 mM stock solutions of the drugs were prepared in DMSO and diluted 1:10 with PB7.4. […] At different time points, macromolecules were precipitated by addition of 40 µL of acetonitrile, vortexed and centrifuged for 10 min at 6000 rpm. The supernatant was extracted and investigated via HPLC-MS measurements.

[3] = system: RUMH (c-MET-overexpressing renal cell carcinoma); assay: MTT cytotoxicity assay, RUMH; conditions: for IC50: Homo sapiens, read-out: IC50 RUMH; for Ratio of IC50 ±H2O2, RUMH: IC50 without / with H2O2 pre-incubation
Method: (§2) In addition, to assess the amount of prodrug activation in these models, the cytotoxicity of the activated drugs after (cell-free) pre-incubation with H2O2 was tested for comparison.
(§3) All samples were dissolved in DMSO and diluted to the indicated concentrations (final concentrations of DMSO were below 1%). […] Viability was measured using 3-(4,5-dimethylthiazol-2-yl)-2,5-diphenyltetrazolium bromide (MTT) based vitality assay (EZ4U; Biomedica, Vienna, Austria) following the manufacturer’s recommendations.

ALK = ALK (Homo sapiens, UniProt Q9UM73); assay: Cell-free kinase inhibition assay (SelectScreen, Z'-LYTE), ALK; conditions: for Prodrug factor ALK = IC50 (prodrug)/IC50 (crizotinib): cell-free kinase assay
Text: as §1

[4] = system: H1993 (c-MET-dependent non-small cell lung cancer); assay: MTT cytotoxicity assay, H1993; conditions: for IC50: Homo sapiens, NCI-H1993, read-out: IC50 H1993; for Ratio of IC50 ±H2O2, H1993: IC50 without / with H2O2 pre-incubation
Method: as §2, §3

[5] = system: non-malignant human lung fibroblasts (HLF); assay: MTT cytotoxicity assay, HLF; conditions: Fibroblast, read-out: IC50 HLF
Method: as §2, §3

[6] = system: H2228 (ALK-dependent non-small cell lung cancer); assay: MTT cytotoxicity assay, H2228; conditions: for IC50: Homo sapiens, NCI-H2228, read-out: IC50 H2228; for Ratio of IC50 ±H2O2, H2228: IC50 without / with H2O2 pre-incubation
Method: as §2, §3

[7] = H2O2 activation assay (HPLC); conditions: for Product of activation with H2O2 / Release of free crizotinib: ten equivalents H2O2, phosphate buffer 50 mM pH 7.4, 37 °C; for Product of activation with H2O2: 1 h, HPLC-MS
Method: Therefore, the activation process was verified by incubation with ten equivalents of H2O2 in phosphate buffer (50 mM, pH 7.4) at 37 °C. […] In a complex biological environment, this quinone methide usually reacts with other nucleophiles; consequently, this side reaction can be neglected.
Additionally, a H2O2 solution (1 mM) in PB7.4 was prepared. The activation was started by addition of 5 µL of drug solution and 25 µL of H2O2 to 70 µL of PB7.4 and incubated at 37 °C for 1 h. At time point 0 and every 8 min, the sample were measured via HPLC. All measurements were performed on a ThermoFisher Ultimate 3000RS system using a Water’s Acquity BEH C18 column (3 × 50 mm, 1.7 µm) and a 5%–95% gradient of acetonitrile (+0.1% TFA) in water (+0.1% TFA). […] The results are visualized in Figure S6 for prodrug A and in Figure S7 for prodrug B.

Chain of ALK (Q9UM73 19-1620): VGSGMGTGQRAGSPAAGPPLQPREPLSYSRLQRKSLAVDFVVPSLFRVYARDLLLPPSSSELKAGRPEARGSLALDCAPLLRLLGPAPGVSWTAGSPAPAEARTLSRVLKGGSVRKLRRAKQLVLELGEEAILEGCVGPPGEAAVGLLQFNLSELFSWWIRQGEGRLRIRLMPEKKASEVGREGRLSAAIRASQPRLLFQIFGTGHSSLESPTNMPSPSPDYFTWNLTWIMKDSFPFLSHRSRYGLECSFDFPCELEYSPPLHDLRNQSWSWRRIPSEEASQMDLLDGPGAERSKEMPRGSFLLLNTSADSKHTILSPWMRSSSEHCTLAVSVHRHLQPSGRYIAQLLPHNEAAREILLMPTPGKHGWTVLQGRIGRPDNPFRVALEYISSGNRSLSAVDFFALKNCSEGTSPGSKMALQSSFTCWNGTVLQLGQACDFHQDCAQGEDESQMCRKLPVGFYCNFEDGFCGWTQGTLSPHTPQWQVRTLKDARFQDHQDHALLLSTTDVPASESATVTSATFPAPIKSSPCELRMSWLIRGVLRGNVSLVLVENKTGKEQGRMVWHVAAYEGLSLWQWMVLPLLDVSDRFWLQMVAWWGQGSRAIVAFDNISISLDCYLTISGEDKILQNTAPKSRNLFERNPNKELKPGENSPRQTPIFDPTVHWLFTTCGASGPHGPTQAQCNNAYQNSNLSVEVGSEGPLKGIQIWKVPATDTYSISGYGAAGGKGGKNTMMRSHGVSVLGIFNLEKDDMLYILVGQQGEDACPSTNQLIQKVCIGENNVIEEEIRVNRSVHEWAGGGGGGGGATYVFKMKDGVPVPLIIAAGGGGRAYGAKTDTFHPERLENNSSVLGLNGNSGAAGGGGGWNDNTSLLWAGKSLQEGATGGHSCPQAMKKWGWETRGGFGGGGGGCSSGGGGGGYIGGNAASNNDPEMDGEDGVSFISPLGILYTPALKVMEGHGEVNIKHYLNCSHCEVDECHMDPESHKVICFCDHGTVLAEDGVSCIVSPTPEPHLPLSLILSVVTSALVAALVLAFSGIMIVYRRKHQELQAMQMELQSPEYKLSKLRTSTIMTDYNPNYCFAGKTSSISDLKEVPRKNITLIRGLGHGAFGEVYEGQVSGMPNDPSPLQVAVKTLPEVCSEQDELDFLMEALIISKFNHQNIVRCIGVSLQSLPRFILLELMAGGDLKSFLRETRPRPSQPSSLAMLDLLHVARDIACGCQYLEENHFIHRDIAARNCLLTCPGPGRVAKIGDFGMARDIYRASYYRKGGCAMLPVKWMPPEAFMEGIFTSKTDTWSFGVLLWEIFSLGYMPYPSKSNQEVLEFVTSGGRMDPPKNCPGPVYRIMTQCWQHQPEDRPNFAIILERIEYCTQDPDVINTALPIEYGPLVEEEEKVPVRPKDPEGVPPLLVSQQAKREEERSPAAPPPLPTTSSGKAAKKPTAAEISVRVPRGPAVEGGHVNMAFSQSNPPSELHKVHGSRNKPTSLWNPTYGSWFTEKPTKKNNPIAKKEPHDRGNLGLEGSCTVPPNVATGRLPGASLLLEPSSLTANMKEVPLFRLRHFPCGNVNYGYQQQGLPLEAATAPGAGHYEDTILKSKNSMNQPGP
Chain of c-MET (P08581 25-1390): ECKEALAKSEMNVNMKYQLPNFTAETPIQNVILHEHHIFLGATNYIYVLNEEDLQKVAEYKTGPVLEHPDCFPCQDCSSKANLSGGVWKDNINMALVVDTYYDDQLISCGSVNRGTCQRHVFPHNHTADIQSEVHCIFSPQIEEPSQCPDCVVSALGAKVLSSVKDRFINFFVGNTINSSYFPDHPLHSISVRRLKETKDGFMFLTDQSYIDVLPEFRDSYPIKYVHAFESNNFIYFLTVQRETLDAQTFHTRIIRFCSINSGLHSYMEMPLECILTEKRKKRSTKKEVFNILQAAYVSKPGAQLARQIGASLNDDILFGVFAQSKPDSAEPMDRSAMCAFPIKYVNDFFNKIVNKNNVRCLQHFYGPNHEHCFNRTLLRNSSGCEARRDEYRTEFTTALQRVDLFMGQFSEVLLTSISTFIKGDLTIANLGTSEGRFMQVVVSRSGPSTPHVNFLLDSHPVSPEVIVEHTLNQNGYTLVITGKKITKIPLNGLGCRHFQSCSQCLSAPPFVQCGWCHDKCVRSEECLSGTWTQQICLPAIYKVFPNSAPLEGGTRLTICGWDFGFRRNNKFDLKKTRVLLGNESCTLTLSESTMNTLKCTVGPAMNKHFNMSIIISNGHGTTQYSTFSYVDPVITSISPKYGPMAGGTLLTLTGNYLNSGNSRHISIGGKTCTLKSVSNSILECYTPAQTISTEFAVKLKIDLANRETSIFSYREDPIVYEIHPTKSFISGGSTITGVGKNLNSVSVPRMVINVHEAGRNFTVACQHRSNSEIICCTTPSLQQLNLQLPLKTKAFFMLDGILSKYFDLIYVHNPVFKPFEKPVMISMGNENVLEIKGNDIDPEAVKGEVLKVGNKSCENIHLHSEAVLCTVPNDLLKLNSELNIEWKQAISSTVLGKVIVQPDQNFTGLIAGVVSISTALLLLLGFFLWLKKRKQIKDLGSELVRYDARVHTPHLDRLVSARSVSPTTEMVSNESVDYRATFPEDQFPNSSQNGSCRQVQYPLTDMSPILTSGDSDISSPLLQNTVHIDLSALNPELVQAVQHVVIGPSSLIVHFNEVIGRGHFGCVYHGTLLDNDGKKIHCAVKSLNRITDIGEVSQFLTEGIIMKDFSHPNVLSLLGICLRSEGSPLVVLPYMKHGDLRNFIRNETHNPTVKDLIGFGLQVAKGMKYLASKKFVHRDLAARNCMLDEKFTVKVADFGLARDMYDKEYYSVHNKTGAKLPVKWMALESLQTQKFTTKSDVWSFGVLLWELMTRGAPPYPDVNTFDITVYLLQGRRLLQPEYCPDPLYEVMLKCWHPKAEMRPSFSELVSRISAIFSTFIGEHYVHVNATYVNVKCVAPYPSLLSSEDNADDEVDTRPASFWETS

| Compound | GI absorption (predicted) [1] | IC50 (c-MET) [µM] | Prodrug factor c-MET = IC50 (prodrug)/IC50 (crizotinib) (c-MET) | Prodrug still intact [2] | IC50 [3] [µM] | Ratio of IC50 ±H2O2, RUMH [3] | IC50 (ALK) [µM] | Prodrug factor ALK = IC50 (prodrug)/IC50 (crizotinib) (ALK) | IC50 [4] [µM] | Ratio of IC50 ±H2O2, H1993 [4] | IC50 [5] [µM] | IC50 [6] [µM] | Ratio of IC50 ±H2O2, H2228 [6] | Product of activation with H2O2 [7] | Product of activation with H2O2 ([7]; listed as prodrug B) | Time to activation on incubation with H2O2 ([7]; incubation with H2O2) [h] | Release of free crizotinib ([7]; after 10 min) | Release of free crizotinib ([7]; after 1 h) |
| --- | --- | --- | --- | --- | --- | --- | --- | --- | --- | --- | --- | --- | --- | --- | --- | --- | --- | --- |
| CS(=O)(=O)CCNCc1ccc(-c2ccc3ncnc(Nc4ccc(OCc5cccc(F)c5)c(Cl)c4)c3c2)o1 [lapatinib] | low | – | – | – | – | – | – | – | – | – | – | – | – | – | – | – | – | – |
| C[C@@H](Oc1cc(-c2cnn(C3CCNCC3)c2)cnc1NCc1ccc(B(O)O)cc1)c1c(Cl)ccc(F)c1Cl [Prodrug B, (R)-(4-(((3-(1-(2,6-Dichloro-3-fluorophenyl)ethoxy)-5-(1-(piperidin-4-yl)-1H-pyrazol-4-yl)pyridin-2-yl)amino)methyl)phenyl)boronic acid] | – | 0.684 | 137 | 30–40% | 5.05 ± 0.44 | 0.91 | 0.333 | 16 | 10.2 ± 1.68 | 0.87 | 8.99 ± 0.36 | 8.3 ± 0.42 | 0.92 | formation of a hydrolyzed but stable phenol derivative, compound C | formation of compound C rather than the release of crizotinib | – | – | – |
| C[C@@H](Oc1cc(-c2cnn(C3CCNCC3)c2)cnc1N)c1c(Cl)ccc(F)c1Cl [Crizotinib, reference compound] | – | – | – | – | 6.08 ± 1.51 | – | – | – | 3.18 ± 0.26 | – | 6.32 ± 0.39 | – | – | – | – | – | – | – |
| C[C@@H](Oc1cc(-c2cnn(C3CCNCC3)c2)cnc1NC(=O)OCc1ccc(B(O)O)cc1)c1c(Cl)ccc(F)c1Cl [Prodrug A, (R)-(4-((((3-(1-(2,6-Dichloro-3-fluorophenyl)ethoxy)-5-(1-(piperidin-4-yl)-1H-pyrazol-4-yl)pyridin-2-yl)carbamoyl)oxy)methyl)phenyl)boronic acid] | – | 0.055 | 11 | – | 14 ± 3.92 | 1.57 | 0.472 | 22 | 9.73 ± 2.63 | 1.22 | 16.8 ± 1.38 | 23.1 ± 0.47 | 1.62 | – | – | ≤ 1 | ~ 50% | ~ 75% |
| C[C@@H](Oc1cc(-c2cnn(C3CCNCC3)c2)cnc1NCc1ccc(O)cc1)c1c(Cl)ccc(F)c1Cl [Compound C, (R)-4-(((3-(1-(2,6-Dichloro-3-fluorophenyl)ethoxy)-5-(1-(piperidin-4-yl)-1H-pyrazol-4-yl)pyridin-2-yl)amino)methyl)phenol] | – | – | – | – | 5.94 ± 1.09 | – | – | – | 9.96 ± 2.69 | – | 4.03 ± 0.04 | 7.23 ± 0.28 | – | – | – | – | – | – |
